According to patent US20250302817A1, “METHODS FOR TREATING PTEN-MUTANT TUMORS” (Icahn School of Medicine at Mount Sinai, priority 2016, published 2025):
Where two headings read alike, the source gives them in different places.

Columns and labels:
[1] = cited from earlier work
[2] = repeated doses of teriflunomide; cited from earlier work
CYP2C19 = biological target: T1, CYP2C19 (Homo sapiens, UniProt P33261); conditions: in vivo; cited from earlier work
T1 construct: omeprazole (a CYP2C19 substrate); host or cells: human subjects, in vivo

CYP2B6 = biological target: T2, CYP2B6 (Homo sapiens, UniProt P20813); conditions: in vivo; cited from earlier work
T2 construct: host or cells: human subjects, in vivo

Pten^−/− and WT MEFs = assay: Drug response assay (GI50 dose titration) in Pten WT and KO MEFs; assay type: cell-based, mouse; conditions: GI50 dose titration (FIG. 2A)
Protocol: FIG. 2F is a graph comparing various human breast cancer cell line growth rates. FIG. 2G is a series of immunoblots of pAKT in nuclear fractions of Pten^−/− and Pik3ca mutant MEFs. […] Data shown as mean+SD.
1500 cells per well (mouse cells) or 3000 cells per well (human cells) were plated in 96-well plates (Corning 720089). Growth rates were determined using the phase-confluency readings on an IncuCyte ZOOM (Essen Biosciences) on live cells over time.
Cells were plated in 96-well plates at a density of 1500 or 3000 cells per well. […] Sensitivity was determined by a dose-response titration for each cell line, with an equivalent amount of DMSO in each well. For cell death assays, DRAQ7™ (Cell Signaling 7406S) was added to the media at a 1:200 dilution and red fluorescence was measured in addition to phase in live-cell imaging to measure accumulation of dead cells. An IncuCyte ZOOM was used.

[3] = system: MCCL-357 and MCCL-278 cells; assay: Karyotyping (chromosomal analysis); assay type: cell-based, mouse; conditions: A771726, by 48 h; MCCL-357 compared to MCCL-278
Protocol: (§1) FIG. 4A is a graph showing positively-stained cells labeled with a gamma-H2AX antibody; cells were analyzed by flow cytometry (Student's t-test, *p<0.05, n=3). […] The mean fluorescence intensity (MFI) was determined using flow cytometry (Student's t-test, *p<0.01, n=3). FIG. 4C is a series of representative photographs showing MEFs treated with 150 μM A771726 for 24 h and labeled with EdU and gamma-H2AX. Left: representative confocal microscopy images. Right: quantified EdU and gamma-H2AX colocalized foci (Student's t-test, *p<0.05, n=3). […] Left: representative confocal microscopy images. Right: quantification of the number of foci per cell (Student's t-test, p>0.05, n=6). FIG. 4E is a graph showing the percentage of cells treated with 150 μM A771726 for times indicated and labeled with antibodies to RPA and gamma-H2AX positively staining for RPA alone or both RPA and gamma-H2AX; cells were analyzed by flow cytometry (Student's t-test, *p<0.05, n=4). […] FIGS. 4G and 4H are graphs quantifying the number of chromosomal breaks and multiradial formations per haploid genome (Student's t-test, *p-values on figure, cells scored/replicate>100). […]
FIG. 10D is a bar graph showing a quantitative depiction of the percent cell area with EdU-staining from images in FIG. 4D, used to normalize foci to cell size (Student's t-test, p>0.05, not significant, n=6). […]

[4] = cited from earlier work; for median t½: healthy volunteers and MS patients
CYP2D6 = biological target: T3, CYP2D6 (Homo sapiens, UniProt P10635); conditions: in vivo; cited from earlier work
T3 construct: metoprolol (a CYP2D6 substrate); host or cells: human subjects, in vivo

CYP2C8 = biological target: T4, CYP2C8 (Homo sapiens, UniProt P10632); conditions: repeated doses of teriflunomide, single dose of 0.25 mg repaglinide; cited from earlier work
T4 construct: host or cells: human subjects, in vivo

[5] = system: MCCL-357 and MCCL-278 cells; assay: RPA and gamma-H2AX co-staining by flow cytometry; assay type: cell-based, mouse
Protocol: as §1
FIG. 10D is a bar graph showing a quantitative depiction of the percent cell area with EdU-staining from images in FIG. 4D, used to normalize foci to cell size (Student's t-test, p>0.05, not significant, n=6). […] Cells were treated with A771726 for times indicated and co-stained with antibodies to RPA and gamma-H2AX; cells were analyzed by flow cytometry (n=4). […] FIG. 10H is a bar graph showing a quantitative depiction of the percent of abnormal […] in MCCL-278 and MCCL-357 breast cells treated with 50 or 100 μM A771726 or vehicle (Student's t-test, *p<0.01). […] Pulverized chromosomes could not be quantified due to the very high number of fragments.
The FlowCellect™ Cell Cycle Checkpoint H2A.X DNA Damage Kit (Millipore FCCH12542) was used according to the instructions provided in the kit. […] (Propidium iodide was not used in this setting.) Fluorescence was measured on a Guava® flow cytometer.

[6] = without accelerated elimination procedure

T4 sequence (P10632 whole entry): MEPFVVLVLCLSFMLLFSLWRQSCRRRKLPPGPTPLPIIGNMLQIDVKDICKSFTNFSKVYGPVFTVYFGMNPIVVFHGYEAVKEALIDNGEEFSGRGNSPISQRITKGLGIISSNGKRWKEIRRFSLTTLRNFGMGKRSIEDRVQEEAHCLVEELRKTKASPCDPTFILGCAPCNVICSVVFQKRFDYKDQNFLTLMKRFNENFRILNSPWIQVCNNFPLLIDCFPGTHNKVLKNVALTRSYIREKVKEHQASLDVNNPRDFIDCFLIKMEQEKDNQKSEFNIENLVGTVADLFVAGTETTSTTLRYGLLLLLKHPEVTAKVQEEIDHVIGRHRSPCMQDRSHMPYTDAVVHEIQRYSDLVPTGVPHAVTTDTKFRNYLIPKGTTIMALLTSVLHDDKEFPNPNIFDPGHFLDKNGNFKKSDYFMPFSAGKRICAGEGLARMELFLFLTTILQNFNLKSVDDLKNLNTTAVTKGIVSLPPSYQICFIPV
T3 sequence (P10635 whole entry): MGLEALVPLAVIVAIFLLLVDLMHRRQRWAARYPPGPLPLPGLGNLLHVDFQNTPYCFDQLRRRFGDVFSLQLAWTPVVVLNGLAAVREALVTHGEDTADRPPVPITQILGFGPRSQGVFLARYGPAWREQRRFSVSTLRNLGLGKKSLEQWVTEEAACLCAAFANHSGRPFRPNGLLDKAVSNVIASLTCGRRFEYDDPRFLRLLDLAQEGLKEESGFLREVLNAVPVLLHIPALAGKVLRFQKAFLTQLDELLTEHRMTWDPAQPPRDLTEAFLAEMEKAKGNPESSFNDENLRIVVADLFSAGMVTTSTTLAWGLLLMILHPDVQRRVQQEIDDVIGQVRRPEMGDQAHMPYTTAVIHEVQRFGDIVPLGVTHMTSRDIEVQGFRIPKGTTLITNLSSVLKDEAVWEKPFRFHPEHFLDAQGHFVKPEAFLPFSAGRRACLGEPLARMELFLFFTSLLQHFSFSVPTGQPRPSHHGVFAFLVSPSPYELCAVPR
T1 sequence (P33261 whole entry): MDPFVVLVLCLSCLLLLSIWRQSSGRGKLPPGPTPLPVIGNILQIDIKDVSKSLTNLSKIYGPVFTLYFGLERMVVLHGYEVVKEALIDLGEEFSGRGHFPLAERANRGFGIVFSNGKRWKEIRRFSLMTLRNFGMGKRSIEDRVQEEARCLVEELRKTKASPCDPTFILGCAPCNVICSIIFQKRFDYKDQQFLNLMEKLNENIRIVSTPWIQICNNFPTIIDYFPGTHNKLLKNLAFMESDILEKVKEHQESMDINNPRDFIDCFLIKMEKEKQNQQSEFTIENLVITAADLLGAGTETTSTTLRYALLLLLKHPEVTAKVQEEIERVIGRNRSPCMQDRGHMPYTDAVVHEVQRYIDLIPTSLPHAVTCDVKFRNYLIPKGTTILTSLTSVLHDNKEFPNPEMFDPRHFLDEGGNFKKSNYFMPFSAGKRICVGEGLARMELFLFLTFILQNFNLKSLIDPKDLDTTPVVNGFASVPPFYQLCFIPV
T2 sequence (P20813 whole entry): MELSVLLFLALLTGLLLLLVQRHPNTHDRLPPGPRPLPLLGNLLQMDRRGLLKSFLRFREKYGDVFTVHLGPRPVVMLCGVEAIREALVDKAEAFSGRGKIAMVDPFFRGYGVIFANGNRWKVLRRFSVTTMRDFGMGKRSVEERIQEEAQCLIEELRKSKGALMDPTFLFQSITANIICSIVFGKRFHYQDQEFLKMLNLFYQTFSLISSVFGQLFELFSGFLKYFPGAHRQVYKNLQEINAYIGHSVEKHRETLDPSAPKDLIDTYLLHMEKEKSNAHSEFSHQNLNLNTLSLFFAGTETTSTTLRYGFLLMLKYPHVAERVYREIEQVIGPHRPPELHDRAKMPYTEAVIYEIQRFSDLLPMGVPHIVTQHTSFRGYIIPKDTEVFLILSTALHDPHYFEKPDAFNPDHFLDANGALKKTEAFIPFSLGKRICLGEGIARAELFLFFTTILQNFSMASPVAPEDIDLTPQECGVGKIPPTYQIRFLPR

In the case of `C/C(O)=C(\C#N)C(=O)Nc1ccc(C(F)(F)F)cc1` [teriflunomide, (Z)-2-Cyano-3-hydroxy-but-2-enoic acid-(4trifluoromethylphenyl)-amide], the “additional dose eliminated (mostly in feces)” value ([1]; after accelerated elimination procedure with cholestyramine) is given as 23.1%, the “decrease in teriflunomide plasma concentration” value ([1]; end of 11 days of cholestyramine or activated charcoal) is given as “more than 98%” and the “increase in mean ethinylestradiol AUC 0-24” value [2] is given as 1.54 fold. For the same molecule, the “increase in mean ethinylestradiol Cmax” value [2] was 1.58 fold, the “increase in mean levonorgestrel AUC 0-24” value [2] was 1.41 fold and the “increase in mean levonorgestrel Cmax” value [2] was 1.33 fold. The “effect on pharmacokinetics of omeprazole (a CYP2C19 substrate)” value (CYP2C19) was “does not affect the pharmacokinetics”, the “effect on pharmacokinetics of bupropion (a CYP2B6 substrate)” value (CYP2B6) was “does not affect the pharmacokinetics” and the “sensitivity of Pten^−/− MEFs compared with WT MEFs” value (Pten^−/− and WT MEFs) was “more sensitive”. For the same molecule, the “chromosome gaps, breaks, and multiradial formations” value [3] was “greater number of chromosome gaps, breaks, and multiradial formations in MCCL-357 cells”, the “effect of food on teriflunomide pharmacokinetics” value ([4]; human, in vivo) was “does not have a clinically relevant effect” and the “time to reach steady-state concentrations” value ([4]; human, in vivo) was “approximately 3 months”. The “volume of distribution (Vss)” value ([4]; human, in vivo) was 0.13 L/kg, the “administered dose excreted via feces” value ([4]; over 21 days) was 37.5% and the “administered dose excreted via feces and urine” value ([4]; over 21 days) was 60.1%. For the same molecule, the “administered dose excreted via urine” value ([4]; over 21 days) was 22.6%, the “clearance rate less in females than in males” value ([4]; population analysis) was 23% and the “increase in clearance, smokers over non-smokers” value ([4]; population-based pharmacokinetic analysis of phase III data) was 38%. The “median t½” value ([4]; repeated doses of 7 mg) was “approximately 18 days”, the “median t½” value ([4]; repeated doses of 14 mg) was ~19 days and the “estimated AUC accumulation ratio” value ([4]; repeated doses of 7 or 14 mg) was “approximately 30”. The total body clearance ([4]; single IV administration) was 30.5 mL/h, the “time to reach plasma concentrations less than 0.02 mg/L, longest (individual variations in drug clearance)” value [4, 6] was ≤ 2 years and the “time to reach plasma concentrations less than 0.02 mg/L, on average” value [4, 6] was 8 months. For the same molecule, the “effect on pharmacokinetics of metoprolol (a CYP2D6 substrate)” value (CYP2D6) was “does not affect the pharmacokinetics”, the “increase in mean repaglinide AUC” value (CYP2C8) was 2.4 fold and the “increase in mean repaglinide Cmax” value (CYP2C8) was 1.7 fold. For the same molecule, the “RPA and gamma-H2AX double-positive cells” value ([5]; 150 μM A771726, time course) was “shift toward both RPA and gamma-H2AX-positive cells in Pten^−/− MCCL-357 but not in Pten WT MCCL-278 cells”, the RPA signal ([5]; 150 μM A771726, regardless of PTEN genotype) was “increase in RPA signal” and the “gamma-H2AX in relation to RPA staining” value ([5]; MCCL-357 cells treated with A771726) was “appeared almost exclusively in RPA-positive MCCL-357 cells”.
